# Measured values taken from patent US20250339391A1, “METHODS FOR EFFECTIVE MANAGEMENT OF PAIN” (South Rampart Pharma, Inc., priority 2024, published 2025).
# “Also recorded” adds a separate entry of the source.
# What was measured:
# [1] = test system: CD1 (young male and female) or C57BL/6 (aged male) mice; experiment: Acetic acid-induced abdominal writhing visceral pain assay; type: in vivo, mouse; conditions: for analgesia in acetic acid-induced writhing assay: 100 mg/kg, all cohorts; for antinociception in acetic acid writhing: 32 and 100 mg/kg PO, 0.4% acetic acid ip
# Experimental: In this model of visceral pain, abdominal contraction (writhing) in which contraction of the abdominal muscles and stretching of the hind limbs is induced in mice in response to an ip injection of 0.4% acetic acid at a dose of 10 mL/kg 25 min after drug administration is assessed. Specifically, the number of writhes is counted for 10 min beginning 5 min after acetic acid injection. […] CD1 (young male and female) or C57BL/6 (aged male) mice were used. For the abdominal writhing assays, we used n=35 aged male mice, n=70 young male mice, and n=70 young female mice.
# [2] = test system: CD1 mice; conditions: for signs of hepatotoxicity: CD-1 mice; for animals dead in 48 hours: FIG. 1F experiment, data not shown
# Experimental: After drug administration, animals were returned to their respective cages and maintained with food and water provided ad libitum for the next 12 h. Animals were then euthanized under 5% isoflurane anesthesia after 12 h, and whole blood samples were collected transcardially in sterile microcentrifuge tubes without anti-coagulants. Whole blood samples were stored at room temperature (25° C.) for 30 min, allowing them to coagulate, which was centrifuged at 1,000 g for 5 min at 4° C. to isolate serum samples from whole blood, which were collected, aliquoted, and stored at −80° C. for identification of NAPQI, and liver function tests (LFTs).
# LFTs were done on fresh serum samples, and not on thawed frozen serum samples to avoid denaturing LFT transaminases due to freeze/thaw of frozen serum.
# Employing a consistent lethal dose for both compounds streamline the experimental design and facilitates data interpretation. This approach aligns with FDA guidelines on Bioequivalence and Bioavailability studies for estimating the maximum safe starting dose in humans, a strategy further substantiated by others. At 12 h post-injection, mice were deeply anesthetized under 5% isoflurane for more than 5 min and formalin-fixed via transcardial perfusion with 10% Neutral Buffered Formalin (NBF) after exsanguination using 0.9% NaCl. Liver tissues were extracted and stored in NBF for 24 h post fixation, after which they were then transferred to 80% EtOH for storage prior to paraffin embedding, sectioning, and immunological staining. FFPE blocks were sectioned into 5 μm thick slices on regular frost-free plus slides and dried overnight on a slide warmer. After deparaffination, sections were stained with validated antibodies for nitrotyrosine and ZO-1 (tight junctions). […] Nitrotyrosine labeling was detected with 3′3′-Diaminobenzidine (DAB) staining, and nitrotyrosine labeled hepatic sections were imaged at 100× magnification in brightfield using a Nikon Eclipse TS100 microscope with NIS-Elements BR 3.0 software (NIKON Inc, Melville, NY, USA). Slides with ZO-1 staining were imaged in z-stacks obtained at 20× magnification using Olympus FV-1200 confocal microscope with Fluoview software FV10-ASW Version 04.02.02.09 (Olympus Corp Center Valley, PA, USA). Quantification of ZO-1 staining hepatic tight junctions was carried out by unbiassed image analysis calculating area sum of pixel^2 of the green channel staining ZO-lusing CellSens software (Olympus Corp Center Valley, PA, USA).
# [3] = test system: Sprague-Dawley rats; experiment: CFA inflammatory pain / von Frey with electronic detection (eVF); type: in vivo, rat; conditions: for antinociceptive activity, SRP-001 versus ApAP: 32 and 100 mg/kg, young and aged rats
# Experimental: In this model of mechanonociception, one hind paw at a time is stimulated with an electronic von Frey (eVF) filament (noxious source) until the animal retracts the paw from the mechanical stimulus. von Frey tests were conducted in a dedicated room at the LSUHSC New Orleans Neuroscience Center of Excellence vivarium. Rats were acclimated to their environment for 2 days for 30 min/day prior to testing. To obtain eVF pressure recordings, each animal was placed in an individual plastic observation compartment on a perforated metallic grid platform, which provided access to the plantar surface of the hind paws. After acclimation to the environment for 30 min, mechanical hypersensitivity was assessed by stimulating the mid-plantar area of each hind paw with a rigid tip von Frey filament attached to the eVF meter (Ugo Basile 38450) until animals withdrew the paw from the filament. The withdrawal threshold was defined as the average force/pressure (g) required for the rat to withdraw the stimulated paw. A brisk withdrawal of the paw (often followed by a sustained retraction and/or licking) was considered a positive response, but paw withdrawals due to locomotion or weight shifting were not counted. The von Frey studies were conducted with an eVF device that electronically registers the grams of force necessary to elicit paw withdrawal in order to eliminate bias that confounded previous older versions of this test. Baseline withdrawal thresholds of both the right and left paws were recorded, and animals were assigned to different treatment groups so that each group had approximately equal withdrawal threshold averages in both paws. […] Doses at concentrations of 32 mg/kg and 100 mg/kg were tested in a cumulative dose-response manner and given at an interval of 60 min, and paw withdrawal threshold readings were measured using eVF as described above.
# [4] = test system: male CD1 mice; experiment: Baker yeast-induced hyperthermia antipyresis assay; type: in vivo, mouse; conditions: 15% yeast ip, drug 75 mg/kg per os
# Experimental: Antipyresis experiments were carried out with n=60 CD-1 male mice weighing between 45-50 g. All mice were kept in a 12-h day/12-h night cycle with free access to food and water ad libitum. After habituating and acclimating the mice for a week, each mouse was briefly anesthetized for 1 min with 1% isoflurane and implanted subcutaneously a transmitter probe that records core body temperature—Implantable Programmable Temperature Transponder (IPTT-300) by Bio Medic Data Systems (BMDS), DE, USA. The mice were allowed to recover for at least one week from the surgery before any recordings were made and observed in their home cages prior to pyrogen challenge for inducing fever. Temperatures were recorded using the BMDS DAS-8027-IUS data reading system.
# (15% yeast, […]) (MilliporeSigma, Billerica, MA, USA) was used to induce fever. All animals used in this assay were male CD1 mice, which were fasted overnight (15 h) before the start of the assay. Mice received either yeast in 0.9% saline (sterile) (vehicle) or just 0.9% saline as an ip injection. […] All mice that didn't show a significant change in body temperature or appeared sick post-pyrogen challenge were excluded (n=5) from subsequent drug administrations.
# Drug injection/concentration: All drugs and vehicle (10% DMSO: 10% labrasol:80% PEG400) were administered by oral gavage, PO administration. […]
Compound,analgesia in acetic acid-induced writhing assay [1],antinociception in acetic acid writhing [1],equimolar (μmol/kg) ED50 / dose-response curve relative to ApAP ([1]; acetic acid writhing),"centrilobular necrosis / nitrotyrosine staining of liver sections ([2]; CD1 mice, 600 mg/kg PO, 12 h)","liver transaminases ALT and AST ([2]; CD1 mice, 600 mg/kg, serum)",signs of hepatotoxicity ([2]; 600 mg/kg),animals dead in 48 hours [2],"TUNEL-positive apoptotic nuclei in liver sections ([2]; mouse, in vivo, 600 mg/kg)","antinociceptive activity, SRP-001 versus ApAP [3]","equimolar (μmol/kg) ED50 / dose-response curve relative to ApAP ([3]; von Frey, non-linear regression)","antipyresis, core body temperature [4]","hepatic tight junctions by ZO-1 staining ([2]; CD1 mice, 600 mg/kg PO, 12 h, 600 mg/kg)"
"CCN(CC)C(=O)c1ccccc1S(=O)(=O)NCC(=O)Nc1ccc(O)cc1 [SRP-001, N,N-diethyl-2-[[2-(4-hydroxyanilino)-2-oxo-ethyl]sulfamoyl]benzamide]",significant analgesia,experienced antinociception,comparable or improved ED50; also recorded: shifted to the left; also recorded: clear shift to the left,lack nitrotyrosine staining,not observed,no signs of hepatotoxicity,none,almost no TUNEL signal,comparable antinociceptive activity; also recorded: more efficacious than ApAP; also recorded: comparable analgesic activity,shifted curves to the left; also recorded: comparable or improved ED50; also recorded: clear shift to the left,subsequent reduction in core body temperature,
"CC(=O)Nc1ccc(O)cc1 [ApAP, acetaminophen]",significant analgesia,experienced antinociception,,,,hepatotoxicity is evident,75%,,comparable antinociceptive activity; also recorded: comparable analgesic activity,,subsequent reduction in core body temperature,significant reduction in ZO-1-stained tight junctions; also recorded: marked decrease in ZO-1
